Experimental data reported in patent US20230303575A1, “FGFR AND MUTATION INHIBITOR THEREOF, PREPARATION METHOD THEREFOR AND USE THEREOF” (Abbisko Therapeutics Co., Ltd., priority 2020, published 2023).

Legend:
Format in all cases: cell-based
[1] = target: T1, FGFR3 V555M (Homo sapiens, UniProt P22607, V555M); assay: Cell proliferation assay for FGFR3 V555M in BaF3; conditions: BaF3 cells expressing FGFR3 V555M fusion, 48 hrs, CellTiter Glo
T1 construct: P41212 (Transcription factor ETV6)
Description: (§1) For the compounds of the Examples of the present invention, cell strains of TEL-FGFR3 WT intracellular kinase domain fusion protein or intracellular domain fusion protein containing FGFR3 V555M or FGFR3 N540K mutation were stably expressed in Baf cells by transfection and were used to determine the cell proliferation effect of BaF3-Tel-FGFR3 WT. FGFR3 V555M or FGFR3 N540K. The specific test process was as follows: • 1) The cell suspension was plated into a 96-well plate containing growth medium (DMEM containing 1% Glutamax, 10% FBS and 1% Pen/Strep) at 2000-4000 cells/90 μL/per well, and then the mixture was incubated overnight at 37° C. and 5% CO2. • 2) 10 μL of growth medium containing a 10-fold stock solution of test compound was added to the cell culture (9 dose points, 3× serial dilution, starting from 1 μM, finally 0.3% DMSO). • 3) The mixture was incubated at 37° C. and 5% CO2 for 48 hrs. • 4) 50 μL of CellTiter Glo (CTG) reagent was added to the cell-containing 96-well plate, and the plate was then incubated at room temperature for 10 min. • 5) Relative light units (RLUs) were measured on a microplate reader with a luminescence detection module. RLU values were normalized to % survival, and concentration-response curves were plotted using Prism to calculate IC50 (nM).

[2] = target: T2, FGFR2 V564F (Homo sapiens, UniProt P21802, V564F); assay: Cell proliferation assay for Tel-FGFR2 V564F in BaF3; conditions: BaF3 cells expressing FGFR2 V564F fusion, 48 hrs, CellTiter Glo
T2 construct: P41212 (Transcription factor ETV6)
Description: (§2) By transfection, cell strains of the intracellular kinase domain fusion protein of TEL-FGFR2 WT or the intracellular domain fusion proteins containing FGFR2 V564, V564F, V564L, N549K and K659M mutations were stably expressed in Baf cells. On day 1, the cell suspension was plated into a 96-well plate containing growth medium (DMEM containing 1% Glutamax, 10% FBS and 1% Pen/Strep) at 2000-4000 cells/90 μL/per well, and then the mixture was incubated overnight at 37° C. and 5% CO2. On day 2, 10 μL of growth medium containing a 10-fold stock solution of test compound was added to the cell culture (9 dose points, 3× serial dilution, starting from 1 μM, finally 0.3% DMSO). After incubation at 37° C. and 5% CO2 for 48 hrs, 50 μL of CellTiter Glo (CTG) reagent was added to the cell-containing 96-well plate on day 3, and the plate was then incubated at room temperature for 10 min. Then relative light units (RLUs) were measured on a microplate reader with a luminescence detection module. RLU values were normalized to % survival, and concentration-response curves were plotted using Prism to calculate IC50 (nM).

[3] = target: T3, FGFR3 N540K (Homo sapiens, UniProt P22607, N540K); assay: Cell proliferation assay for FGFR3 N540K in BaF3; conditions: BaF3 cells expressing FGFR3 N540K fusion, 48 hrs, CellTiter Glo
T3 construct: P41212 (Transcription factor ETV6)
Description: as §1

[4] = target: T4, FGFR2 V564I (Homo sapiens, UniProt P21802, V564I); assay: Cell proliferation assay for Tel-FGFR2 V564I in BaF3; conditions: BaF3 cells expressing FGFR2 V564I fusion, 48 hrs, CellTiter Glo
T4 construct: P41212 (Transcription factor ETV6)
Description: as §2

[5] = target: T5, FGFR2 N549K (Homo sapiens, UniProt P21802, N549K); assay: Cell proliferation assay for Tel-FGFR2 N549K in BaF3; conditions: BaF3 cells expressing FGFR2 N549K fusion, 48 hrs, CellTiter Glo
T5 construct: P41212 (Transcription factor ETV6)
Description: as §2

[6] = target: T6, FGFR2 K659M (Homo sapiens, UniProt P21802, K659M); assay: Cell proliferation assay for Tel-FGFR2 K659M in BaF3; conditions: BaF3 cells expressing FGFR2 K659M fusion, 48 hrs, CellTiter Glo
T6 construct: P41212 (Transcription factor ETV6)
Description: as §2

[7] = target: T7, FGFR2 V564L (Homo sapiens, UniProt P21802, V564L); assay: Cell proliferation assay for Tel-FGFR2 V564L in BaF3; conditions: BaF3 cells expressing FGFR2 V564L fusion, 48 hrs, CellTiter Glo
T7 construct: P41212 (Transcription factor ETV6)
Description: as §2

T5 sequence (P21802 481-770 N549K limits assumed): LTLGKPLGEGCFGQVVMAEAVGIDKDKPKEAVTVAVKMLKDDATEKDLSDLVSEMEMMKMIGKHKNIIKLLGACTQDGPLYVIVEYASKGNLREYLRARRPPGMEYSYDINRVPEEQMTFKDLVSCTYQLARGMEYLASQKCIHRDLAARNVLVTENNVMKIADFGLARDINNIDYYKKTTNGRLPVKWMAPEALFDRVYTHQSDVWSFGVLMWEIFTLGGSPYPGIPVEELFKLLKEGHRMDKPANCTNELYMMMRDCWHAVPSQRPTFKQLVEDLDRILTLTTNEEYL
T1 sequence (P22607 472-761 V555M limits assumed): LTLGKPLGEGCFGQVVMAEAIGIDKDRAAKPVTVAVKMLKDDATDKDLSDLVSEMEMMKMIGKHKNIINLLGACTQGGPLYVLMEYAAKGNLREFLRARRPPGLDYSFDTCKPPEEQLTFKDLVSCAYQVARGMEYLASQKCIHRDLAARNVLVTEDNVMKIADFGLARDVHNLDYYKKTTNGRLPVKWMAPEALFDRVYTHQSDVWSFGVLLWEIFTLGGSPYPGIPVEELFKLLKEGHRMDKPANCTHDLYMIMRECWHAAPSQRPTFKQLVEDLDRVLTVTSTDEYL
T3 sequence (P22607 472-761 N540K limits assumed): as the sequence (P22607 472-761 V555M limits assumed) above, with N69K, M84V counted along it
T7 sequence (P21802 481-770 V564L limits assumed): as the sequence (P21802 481-770 N549K limits assumed) above, with K69N, V84L counted along it
T6 sequence (P21802 481-770 K659M limits assumed): as the sequence (P21802 481-770 N549K limits assumed) above, with K69N, K179M counted along it
T2 sequence (P21802 481-770 V564F limits assumed): as the sequence (P21802 481-770 N549K limits assumed) above, with K69N, V84F counted along it
T4 sequence (P21802 481-770 V564I limits assumed): as the sequence (P21802 481-770 N549K limits assumed) above, with K69N, V84I counted along it

Structure (SMILES)	IC50 [1] [nM]	IC50 [2] [nM]	IC50 [3] [nM]	IC50 [4] [nM]	IC50 [5] [nM]	IC50 [6] [nM]	IC50 [7] [nM]
C=CC(=O)N1CC[C@H](n2cc(C#Cc3ccc4oc(C5CC5)nc4c3)c3c(N)ncnc32)C1 [Example 1, (S)-1-(3-(4-amino-5-((2-cyclopropylbenzo[d]oxazol-5-yl)ethynyl)-7H-pyrrolo[2,3-d]pyrimidin-7-yl)pyrrolidin-1-yl)prop-2-en-1-one]	0.5 to 5	0.5 to 5	0.5 to 5	≤ 0.5	0.5 to 5	0.5 to 5	0.5 to 5
C=CC(=O)N1CC[C@H](n2nc(C#Cc3ccc4oc(C5CC5)nc4c3)c3c(N)ncnc32)C1 [Example 20, (S)-1-(3-(4-amino-3-((2-cyclopropylbenzo[d]oxazol-5-yl)ethynyl)-1H-pyrazolo [3,4-d]pyrimidin-1-yl)pyrrolidin-1-yl)prop-2-en-1-one]	0.5 to 5	0.5 to 5	0.5 to 5	≤ 0.5	0.5 to 5	5 to 50	0.5 to 5
C=CC(=O)N1CC[C@H](n2nc(C#Cc3c(F)cc4oc(N5CCC5)nc4c3F)c3c(N)ncnc32)C1 [Example 74, (S)-1-(3-(4-amino-3-((2-(azetidin-1-yl)-4.6-difluoro-benzo[d]oxazol-5-yl)ethynyl)-1H-pyrazolo[3,4-d]pyrimidin-1-yl)pyrrolidin-1-yl)prop-2-en-1-one]	≤ 0.5	≤ 0.5	0.5 to 5	≤ 0.5	0.5 to 5	5 to 50	0.5 to 5
CN(C)C/C=C/C(=O)N1CC(n2nc(C#Cc3c(F)cc4sc(C5CC5)nc4c3F)c3c(N)ncnc32)C1 [Example 78, (E)-1-(3-(4-amino-3-((2-cyclopropyl-4,6-difluoro-benzo[d]thiazol-5-yl)ethynyl)-1H-pyrazolo[3,4-d]pyrimidin-1-yl)azetidin-1-yl)-4-(dimethylamino)but-2-en-1-one]	≤ 0.5	≤ 0.5	5 to 50		0.5 to 5	5 to 50	0.5 to 5

Next, values leading:

IC50 [1] [nM]	IC50 [2] [nM]	IC50 [3] [nM]	IC50 [4] [nM]	IC50 [5] [nM]	IC50 [6] [nM]	IC50 [7] [nM]	Structure (SMILES)
0.5 to 5	≤ 0.5	0.5 to 5	≤ 0.5	0.5 to 5	5 to 50	0.5 to 5	C=CC(=O)N1CC[C@H](n2nc(C#Cc3c(F)cc4sc(C5CC5)nc4c3F)c3c(N)ncnc32)C1 [Example 62, (S)-1-(3-(4-amino-3-((2-cyclopropyl-4,6-difluoro-benzo[d]thiazol-5-yl)ethynyl)-1H-pyrazolo[3,4-d]pyrimidin-1-yl)pyrrolidin-1-yl) prop-2-en-1-one]
≤ 0.5	≤ 0.5	0.5 to 5		≤ 0.5	0.5 to 5	≤ 0.5	C=CC(=O)N1C[C@@H](n2nc(C#Cc3c(F)cc4sc(C5CC5)nc4c3F)c3c(N)ncnc32)C[C@@H]1COC [Example 68, 1-((2R,4S)-4-(4-amino-3-((2-cyclopropyl-4,6-difluoro-benzo[d]thiazol-5-yl)ethynyl)-1H-pyrazolo[3,4-d]pyrimidin-1-yl)-2-(methoxy-methyl)pyrrolidin-1-yl) prop-2-en-1-one]
0.5 to 5	≤ 0.5	5 to 50		0.5 to 5	5 to 50	0.5 to 5	CN(C)C/C=C/C(=O)N1CC(n2nc(C#Cc3c(F)cc4oc(N5CCC5)nc4c3F)c3c(N)ncnc32)C1 [Example 77, (E)-1-(3-(4-amino-3-((2-(azetidin-1-yl)-4,6-difluorobenzo[d]oxazol-5-yl)ethynyl)-1H-pyrazolo[3,4-d]pyrimidin-1-yl)azetidin-1-yl)-4-(dimethylamino)but-2-en-1-one]
